In the test the target is T1, human mPGES-1 (Homo sapiens, UniProt O14684).
T1 sequence (O14684 1-152): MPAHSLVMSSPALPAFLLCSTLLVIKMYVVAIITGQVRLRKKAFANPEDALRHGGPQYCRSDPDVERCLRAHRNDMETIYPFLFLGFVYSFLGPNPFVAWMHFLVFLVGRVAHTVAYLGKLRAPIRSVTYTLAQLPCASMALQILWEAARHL
Briefly: Microsomal prostaglandin E synthase biochemical assay. The note with it: microsome preparation containing human mPGES-1; PGH2 10.8 μM, GSH 2.5 mM, pH 6.8; PGE2 quantified by HTRF; average of at least n=2. Put shortly: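 Human mPGES-1 microsomes (from IL-1β-stimulated A549 cells or Sf9 cells expressing human mPGES-1) were pre-incubated 15 min with compound in potassium phosphate buffer pH 6.8 with GSH. PGH2 was then added, and the reaction was stopped after one minute with acidic ferric chloride/citrate. PGE2 was read by HTRF, and IC50 was taken from control-normalised activity.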
For orientation: In TR-FRET formats the signal depends on donor and acceptor labels being close together.

This passage reports IC50 results from US20090131468A1, “Bis-(Sulfonylamino) Derivatives in Therapy 065” (AstraZeneca AB, priority 2007, published 2009).

What is called IC50 is the point on the concentration scale where inhibition reaches its midpoint. The low end stands for greater potency in that assay, the high end for weaker potency in that assay.

`COC(C)(C)CCOc1cc(C(=O)NS(=O)(=O)c2ccccc2S(N)(=O)=O)ccc1-c1cc2ccccc2o1` [Example 145, 4-(Benzofuran-2-yl)-3-(3-methoxy-3-methylbutoxy)-N-(2-sulfamoylphenylsulfonyl)-benzamide] yielded an IC50 of 23 nM. With `NS(=O)(=O)c1ccccc1S(=O)(=O)NC(=O)c1ccc(C#CC2CCCC2)c(F)c1` [Example 146, 4-(Cyclopentylethynyl)-3-fluoro-N-(2-sulfamoylphenylsulfonyl)benzamide], the IC50 is 15 nM. `NS(=O)(=O)c1ccccc1S(=O)(=O)NC(=O)c1cnc(-c2cc3ccccc3o2)c(Cl)c1` [Example 147, 6-(Benzofuran-2-yl)-5-chloro-N-(2-sulfamoylphenylsulfonyl)nicotinamide]: the IC50 was found to be 54 nM.

`NS(=O)(=O)c1ccccc1S(=O)(=O)NC(=O)c1cnc(C#CC2CCCC2)c(Cl)c1` [Example 148, 5-Chloro-6-(cyclopentylethynyl)-N-(2-sulfamoylphenylsulfonyl)nicotinamide] returned a concentration for half-maximal inhibition (IC50) of 22 nM.

`CC(C)(C)C#Cc1ncc(C(=O)NS(=O)(=O)c2ccccc2S(N)(=O)=O)cc1Cl` [Example 149, 5-Chloro-6-(3,3-dimethylbut-1-ynyl)-N-(2-sulfamoylphenylsulfonyl)nicotinamide] showed an IC50 of 64 nM. In turn, `NS(=O)(=O)c1ccccc1S(=O)(=O)NC(=O)c1ccc(-c2cc3ccccc3o2)cc1C(F)(F)F` [Example 150, 4-(Benzofuran-2-yl)-N-(2-sulfamoylphenylsulfonyl)-2-(trifluoromethyl)benzamide] had an IC50 of 360 nM. Next, `CC(C)(C)C#Cc1ccc(C(=O)NS(=O)(=O)c2ccccc2S(N)(=O)=O)c(C(F)(F)F)c1` [Example 151, 4-(3,3-Dimethylbut-1-ynyl)-N-(2-sulfamoylphenylsulfonyl)-2-(trifluoromethyl)-benzamide]: 380 nM; `NS(=O)(=O)c1ccccc1S(=O)(=O)NC(=O)c1c(F)cc(-c2cc3ccccc3o2)cc1F` [Example 152, 4-(Benzofuran-2-yl)-2,6-difluoro-N-(2-sulfamoylphenylsulfonyl)benzamide]: 570 nM; `NS(=O)(=O)c1ccccc1S(=O)(=O)NC(=O)c1c(F)cc(C#CC2CCCC2)cc1F` [Example 153, 4-(Cyclopentylethynyl)-2,6-difluoro-N-(2-sulfamoylphenylsulfonyl)benzamide]: 330 nM.

Regarding `CC(C)(O)C#Cc1cc(C(=O)NS(=O)(=O)c2ccccc2S(N)(=O)=O)ccc1-c1cc2ccccc2o1` [Example 154, 4-(Benzofuran-2-yl)-3-(3-hydroxy-3-methylbut-1-ynyl)-N-(2-sulfamoylphenyl-sulfonyl)benzamide], half-maximal inhibition (IC50) was put at 9.9 nM. In turn, `CC(C)(O)C#Cc1cc(C(=O)NS(=O)(=O)c2ccccc2S(N)(=O)=O)ccc1OCc1ccccc1` [Example 156, 4-(Benzyloxy)-3-(3-hydroxy-3-methylbut-1-ynyl)-N-(2-sulfamoylphenylsulfonyl)-benzamide] yielded an IC50 of 110 nM. `NS(=O)(=O)c1ccccc1S(=O)(=O)NC(=O)c1ccc2[nH]c(Cc3ccccc3)cc2c1` [Example 158, 2-Benzyl-N-(2-sulfamoylphenylsulfonyl)-1H-indole-5-carboxamide] came in with a concentration for half-maximal inhibition (IC50) of 580 nM.

Turning to `NS(=O)(=O)c1ccccc1S(=O)(=O)NC(=O)c1ccc(C#CC2CC2)c2c1OC(F)(F)O2` [Example 159, 7-(Cyclopropylethynyl)-2,2-difluoro-N-(2-sulfamoylphenylsulfonyl)-benzo[d][1,3]dioxole-4-carboxamide], it took 63 nM to reach half-maximal inhibition (IC50).

Turning to `NS(=O)(=O)c1ccccc1S(=O)(=O)NC(=O)c1ccc(C#CC2CC2)c(OCCC(F)(F)F)c1` [Example 160, 4-(Cyclopropylethynyl)-N-(2-sulfamoylphenylsulfonyl)-3-(3,3,3-trifluoropropoxy)-benzamide], 32 nM corresponded to half-maximal inhibition (IC50). Next, `NS(=O)(=O)c1cc(CO)ccc1S(=O)(=O)NC(=O)c1ccc(-c2cc3ccccc3o2)cc1` [Example 161, 4-(Benzofuran-2-yl)-N-(4-(hydroxymethyl)-2-sulfamoylphenylsulfonyl)benzamide]: 320 nM.

`NS(=O)(=O)c1ccccc1S(=O)(=O)NC(=O)c1cnc2ccccc2c1` [Example 162, Benzene-1,2-disulfonic acid 1-amide 2[(quinoline-3-carbonyl)-amide]]: the midpoint of inhibition, the IC50, lay at 11000 nM.
